Reference: the NIST ThermoML archive (doi:10.1016/j.fluid.2005.06.010)

Experiment: xn = mol fraction of the nth substance listed
Details: Fluid (supercritical or subcritical phases), Vibrating tube method

c1ccc2ccccc2c1 [naphthalene] + O=C=O
Details | mass density [kg/m3]
332.95 K, 23003 kPa, x1 = 0.0049 | 772.24
332.95 K, 24035 kPa, x1 = 0.0049 | 783.38
332.96 K, 13066 kPa, x1 = 0.0093 | 562.4
332.96 K, 14010 kPa, x1 = 0.0093 | 607.19
332.96 K, 14033 kPa, x1 = 0.0144 | 623.67
332.96 K, 15035 kPa, x1 = 0.0144 | 657.01
332.96 K, 15044 kPa, x1 = 0.0093 | 643.85
332.96 K, 15076 kPa, x1 = 0.0173 | 670.77
332.96 K, 16046 kPa, x1 = 0.0093 | 671.79
332.96 K, 16056 kPa, x1 = 0.0144 | 683.98
332.96 K, 16081 kPa, x1 = 0.0173 | 695.5
332.96 K, 17019 kPa, x1 = 0.0144 | 704.86
332.96 K, 17024 kPa, x1 = 0.0173 | 714.84
332.96 K, 17026 kPa, x1 = 0.0093 | 694.34
332.96 K, 17996 kPa, x1 = 0.0173 | 731.97
332.96 K, 18009 kPa, x1 = 0.0093 | 713.47
332.96 K, 18013 kPa, x1 = 0.0144 | 723.3
332.96 K, 18019 kPa, x1 = 0.0235 | 741.5
332.96 K, 19018 kPa, x1 = 0.0235 | 756.06
332.96 K, 19028 kPa, x1 = 0.0144 | 739.71
332.96 K, 19030 kPa, x1 = 0.0093 | 730.7
332.96 K, 19068 kPa, x1 = 0.0173 | 748.38
332.96 K, 19996 kPa, x1 = 0.0173 | 761.05
332.96 K, 20018 kPa, x1 = 0.0144 | 753.83
332.96 K, 20030 kPa, x1 = 0.0093 | 745.57
332.96 K, 20031 kPa, x1 = 0.0235 | 769.21
332.96 K, 20990 kPa, x1 = 0.0144 | 766.28
332.96 K, 21000 kPa, x1 = 0.0235 | 780.59
332.96 K, 21004 kPa, x1 = 0.0093 | 758.59
332.96 K, 21018 kPa, x1 = 0.0173 | 773.69
332.96 K, 21972 kPa, x1 = 0.0235 | 791.04
332.96 K, 21996 kPa, x1 = 0.0173 | 784.65
332.96 K, 22030 kPa, x1 = 0.0144 | 778.43
332.96 K, 22033 kPa, x1 = 0.0093 | 771.07
332.96 K, 22991 kPa, x1 = 0.0173 | 794.89
332.96 K, 22996 kPa, x1 = 0.0235 | 801.19
332.96 K, 23002 kPa, x1 = 0.0093 | 781.81
332.96 K, 23017 kPa, x1 = 0.0144 | 789
332.96 K, 23986 kPa, x1 = 0.0235 | 810.27
332.96 K, 23990 kPa, x1 = 0.0093 | 791.9
332.96 K, 23999 kPa, x1 = 0.0144 | 798.72
332.96 K, 24019 kPa, x1 = 0.0173 | 804.7
332.96 K, 24677 kPa, x1 = 0.0173 | 810.61
332.96 K, 24809 kPa, x1 = 0.0235 | 817.39
332.96 K, 24940 kPa, x1 = 0.0144 | 807.41
333 K, 12451 kPa, x1 = 0.0065 | 503.55
333 K, 13033 kPa, x1 = 0.0065 | 540.53
333 K, 13760 kPa, x1 = 0.0065 | 578.33
333 K, 14541 kPa, x1 = 0.0065 | 610.99
333 K, 15426 kPa, x1 = 0.0065 | 640.78
333 K, 16333 kPa, x1 = 0.0065 | 665.58
333 K, 17231 kPa, x1 = 0.0065 | 686.41
333 K, 18146 kPa, x1 = 0.0065 | 704.71
333 K, 19018 kPa, x1 = 0.0065 | 720.04
333 K, 20017 kPa, x1 = 0.0065 | 735.62
333 K, 21002 kPa, x1 = 0.0065 | 749.43
333 K, 22012 kPa, x1 = 0.0065 | 762.16
333 K, 23025 kPa, x1 = 0.0065 | 773.85
333 K, 24004 kPa, x1 = 0.0065 | 784.3
333 K, 25022 kPa, x1 = 0.0065 | 794.34
333.02 K, 12620 kPa, x1 = 0.0038 | 505.57
333.02 K, 12810 kPa, x1 = 0.0038 | 517.8
333.02 K, 12997 kPa, x1 = 0.0038 | 529.34
333.02 K, 13183 kPa, x1 = 0.0038 | 540.11
333.02 K, 13406 kPa, x1 = 0.0038 | 552.35
333.02 K, 13640 kPa, x1 = 0.0038 | 564.51
333.02 K, 13893 kPa, x1 = 0.0038 | 576.62
333.02 K, 14134 kPa, x1 = 0.0038 | 587.16
333.02 K, 14390 kPa, x1 = 0.0038 | 597.75
333.02 K, 14768 kPa, x1 = 0.0038 | 612.29
333.02 K, 15159 kPa, x1 = 0.0038 | 625.81
333.02 K, 15535 kPa, x1 = 0.0038 | 637.78
333.02 K, 16027 kPa, x1 = 0.0038 | 652.03
333.02 K, 16469 kPa, x1 = 0.0038 | 663.57
333.02 K, 17018 kPa, x1 = 0.0038 | 676.71
333.02 K, 17622 kPa, x1 = 0.0038 | 689.78
333.02 K, 18197 kPa, x1 = 0.0038 | 701.13
333.02 K, 18835 kPa, x1 = 0.0038 | 712.75
333.02 K, 19606 kPa, x1 = 0.0038 | 725.55
333.02 K, 20350 kPa, x1 = 0.0038 | 736.76
333.02 K, 21107 kPa, x1 = 0.0038 | 747.32
333.02 K, 22018 kPa, x1 = 0.0038 | 758.99
333.02 K, 22977 kPa, x1 = 0.0038 | 770.32
333.02 K, 23992 kPa, x1 = 0.0038 | 781.31
333.02 K, 25039 kPa, x1 = 0.0038 | 791.79
